15 molecules from patent publication US20250368633A1, “AZEPINE FUSED RING COMPOUND AS RIPK1 INHIBITOR AND USE THEREOF” (ARTIVILA BIOPHARMA, priority 2022, published 2025) can be followed below.

The subject of assay [1] is U937 cells. Description: Inhibition rate of compound (1 μM) on necroptosis of U937 cells (TSZ-induced, CellTiter-Glo). The note with it: TSZ (hTNF-α, SM-164, Z-VAD-FMK) 20 hours. The class given is cell-based. In a few lines:
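Percent inhibition comes from ATP luminescence (CellTiter-Glo), referenced to wells without TSZ and wells with TSZ alone. The compound was added to U937 cells 15 min ahead of a TNF-α/SM-164/Z-VAD-FMK mix, followed by 20 h culture at 37° C, 5% CO2.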

The next assay deals with T1, RIPK1 kinase (Homo sapiens, UniProt Q13546).
T1 construct: purchased Promega VA7593
T1 sequence (Q13546 1-671): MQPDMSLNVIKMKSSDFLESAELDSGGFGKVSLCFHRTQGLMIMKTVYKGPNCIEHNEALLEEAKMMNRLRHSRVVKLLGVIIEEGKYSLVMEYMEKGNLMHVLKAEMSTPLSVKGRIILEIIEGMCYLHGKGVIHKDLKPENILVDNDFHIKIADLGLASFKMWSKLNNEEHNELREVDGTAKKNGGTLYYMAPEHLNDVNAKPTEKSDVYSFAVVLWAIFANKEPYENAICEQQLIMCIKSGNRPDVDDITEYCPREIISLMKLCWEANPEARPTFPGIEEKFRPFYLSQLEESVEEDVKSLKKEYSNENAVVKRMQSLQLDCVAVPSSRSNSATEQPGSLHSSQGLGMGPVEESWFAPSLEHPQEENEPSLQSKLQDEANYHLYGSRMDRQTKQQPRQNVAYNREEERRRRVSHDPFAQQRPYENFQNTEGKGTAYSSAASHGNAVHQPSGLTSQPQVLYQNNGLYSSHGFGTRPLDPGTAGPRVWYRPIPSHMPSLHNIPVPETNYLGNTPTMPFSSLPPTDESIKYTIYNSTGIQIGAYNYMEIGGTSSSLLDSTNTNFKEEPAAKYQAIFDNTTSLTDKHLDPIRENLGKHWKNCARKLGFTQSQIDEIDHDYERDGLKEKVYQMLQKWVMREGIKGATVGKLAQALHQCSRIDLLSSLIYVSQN
Description: In vitro RIPK1 kinase activity assay (ADP-Glo), inhibition by compounds at 1 μM. The format is biochemical. The note with it: compound 1 μM; ATP 10 μM; MBP substrate 100 μg/mL; read-out: RIPK1 kinase activity inhibition rate range. The method, then:
RIPK1 kinase activity was assayed using the ADP-Glo assay and RIPK1 kinase reaction system (Promega, catalog number: VA7593). The RIPK1 kinase activity assay was performed according to the Promega kit manual.
The experimental method was briefly described as below. The concentration of RIPK1 kinase in the RIPK1 kinase reaction system was determined by kinase titration and S/B10. Compounds were diluted with 1× kinase buffer D (1% DMSO), and 1 μL of 100 μM compound DMSO stock solution was added to 19 μL 1× kinase buffer D. RIPK1 kinase was diluted with 1× kinase buffer D. 2.5×ATP/substrate was diluted with 1× kinase buffer D. The final concentration of ATP in the kinase reaction system was 10 μM, and the final concentration of MBP substrate was 100 μg/mL. 1 μL of diluted compound and 2 μL of diluted RIPK1 kinase were mixed, incubated at room temperature for 15 minutes, 2 μL of 2.5×ATP/substrate was added, mixed, and incubated at room temperature for 1 hour. 5 μL of ADP-Glo reagent was added to each well and incubated at room temperature for 1 hour. 10 μL of ADP detection reagent was added to each well and incubated at room temperature for another 0.5-1 hour. The chemiluminescent signal was read by a microplate reader and the inhibition rate of kinase activity was calculated.

Assay [2] deals with U937 cells. Kind of assay: EC50 of necroptosis inhibition in U937 cells (TSZ-induced, CellTiter-Glo). The class given is cell-based. The note with it: Homo sapiens, U-937; TSZ (hTNF-α, SM-164, Z-VAD-FMK) 20 hours; 10 concentration points; read-out: EC50 intervals of necroptosis inhibition in U937 cells. The essentials: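 Luminescent ATP readout (CellTiter-Glo) after 20 h gave viability of TSZ-challenged U937 cells; compounds were added 15 min ahead of TNF-α/SM-164/Z-VAD-FMK. EC50 derived by variable-slope nonlinear regression of inhibition relative to no-TSZ and TSZ-alone controls.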

Each structure is given as a SMILES string. pEC50: −log10 of the molar value.

For `CN1C(=O)[C@@H](NC(=O)C(=O)NCCc2ccccc2)COc2ccc(C#CCOc3ccccc3)cc21` [Example 28, (S)—N^1-(5-methyl-4-oxo-7-(3-phenyloxyprop-1-yn-1-yl)-2,3,4,5-tetrahydrobenzo[b][1,4]oxazepin-3-yl)-N^2-phenethyloxalamide], the “Inhibition rate range of compounds (1 μM) on U937 cell necroptosis” value (shortened to “Inhibition rate range of compounds”) in the assay on U937 cells [1] is on record as “A (A: ≥90%)”. Also, the inhibition at 1 µM at RIPK1 kinase is ≥ 75%. In addition, the pEC50 in the assay with U937 cells [2] is > 7.00.
For `C[C@H](O)C#Cc1ccc2c(c1)N(C)C(=O)[C@@H](NC(=O)C(=O)NCCc1ccccc1)CO2` [Example 30, N^1-((S)-7-((S)-3-hydroxybut-1-yn-1-yl)-5-methyl-4-oxo-2,3,4,5-tetrahydrobenzo[b][1,4]oxazepin-3-yl)-N^2-phenethyloxalamide] the same measures were “A (A: ≥90%)”, 50 to 74% and 6.30 to 7.00.
In the case of `CN1C(=O)[C@@H](NC(=O)C(=O)NCc2ccccc2F)COc2ccc(C#CCCO)cc21` [Example 38, (S)—N^1-(2-fluorobenzyl)-N^2-(7-(4-hydroxybut-1-yn-1-yl)-5-methyl-4-oxo-2,3,4,5-tetrahydrobenzo[b][1,4]oxazepin-3-yl)oxalamide], in the assay on U937 cells [1], the “Inhibition rate range of compounds” value is “A (A: ≥90%)”. On RIPK1 kinase, the inhibition at 1 µM is 50 to 74%. The pEC50 in the assay on U937 cells [2] was 6.30 to 7.00.
For `CN1C(=O)[C@@H](NC(=O)C(=O)NCCc2ccccc2)COc2ccc(C#CCN3CCNCC3)cc21` [Example 49, (S)—N^1-(5-methyl-4-oxo-7-(3-(piperazin-1-yl)prop-1-yn-1-yl)-2,3,4,5-tetrahydrobenzo[b][1,4]oxazepin-3-yl)-N^2-phenethyloxalamide] the same measures were “A (A: ≥90%)”, 50 to 74% and 6.30 to 7.00.
Consider `CN1C(=O)[C@@H](NC(=O)C(=O)NCCc2ccccc2)COc2ccc(C#CC3CCN(CCOCCOCC(=O)OC(C)(C)C)CC3)cc21` [Example 53, tert-butyl (S)-2-(2-(2-(4-((5-methyl-4-oxo-3-(2-oxo-2-(phenethylamino)acetamido)-2,3,4,5-tetrahydrobenzo[b][1,4]oxazepin-7-yl)ethynyl)piperidin-1-yl)ethoxy)ethoxy)acetate], for which the “Inhibition rate range of compounds” value in the assay with U937 cells [1] was “A (A: ≥90%)”. Also, at RIPK1 kinase, the inhibition at 1 µM was in the range of 25 to 49%. Also, in the assay with U937 cells [2], the pEC50 was > 7.00.
As for `CN1C(=O)[C@@H](NC(=O)C(=O)NCCc2ccccc2)COc2ccc(C#CC3CCN(CCOCCOCC(=O)O)CC3)cc21` [Example 54, (S)-1-(2-(2-(carboxymethoxy)ethoxy)ethyl)-4-((5-methyl-4-oxo-3-(2-oxo-2-(phenethylamino)acetamido)-2,3,4,5-tetrahydrobenzo[b][1,4]oxazepin-7-yl)ethynyl)piperidin-1-ium 2,2,2-trifluoroacetate], the “Inhibition rate range of compounds” value in the assay with U937 cells [1] is “B (B: 50-89%)”. Further, the inhibition at 1 µM at RIPK1 kinase lay in the range of 50 to 74%. Also, in the assay on U937 cells [2], the pEC50 is 5.70 to 6.30.
Turning to `Cc1ncsc1-c1ccc(CNC(=O)[C@@H]2C[C@@H](O)CN2C(=O)[C@@H](NC(=O)COCCOCCN2CCC(C#Cc3ccc4c(c3)N(C)C(=O)[C@@H](NC(=O)C(=O)NCCc3ccccc3)CO4)CC2)C(C)(C)C)cc1` [Example 55, N^1-((S)-7-((1-(2-(2-(2-(((S)-1-((2S,4R)-4-hydroxy-2-((4-(4-methylthiazol-5-yl)benzyl)carbamoyl)pyrrolidin-1-yl)-3,3-dimethyl-1-oxobutan-2-yl)amino)-2-oxoethoxy)ethoxy)ethyl)piperidin-4-yl)ethynyl)-5-methyl-4-oxo-2,3,4,5-tetrahydrobenzo[b][1,4]oxazepin-3-yl)-N^2-phenethyloxalamide], the “Inhibition rate range of compounds” value in the assay with U937 cells [1] is “A (A: ≥90%)”. The inhibition at 1 µM on RIPK1 kinase lay within 50 to 74%. Besides, the pEC50 in the assay with U937 cells [2] was > 7.00.
The corresponding values for `CN1C(=O)[C@@H](NC(=O)C(=O)NCCc2ccccc2)COc2ccc(C#CC3CCN(CCOCCOCC(=O)Nc4cccc5c4CN(C4CCC(=O)NC4=O)C5=O)CC3)cc21` (stereo partly drawn) [Example 56, N^1-((3S)-7-((1-(2-(2-(2-(2-(2,6-dioxopiperidin-3-yl)-(1-oxoisoindolin-4-yl)amino)-2-oxoethoxy)ethoxy)ethyl)piperidin-4-yl)ethynyl)-5-methyl-4-oxo-2,3,4,5-tetrahydrobenzo[b][1,4]oxazepin-3-yl)-N^2-phenethyloxalamide] are “A (A: ≥90%)”, 25 to 49% and > 7.00.
As to `CN1C(=O)[C@@H](NC(=O)C(=O)NCCc2ccccc2)COc2ccccc21` [Example 57, (S)—N^1-(5-methyl-4-oxo-2,3,4,5-tetrahydrobenzo[b][1,4]oxazepin-3-yl)-N^2-phenethyloxalamide], the “Inhibition rate range of compounds” value with U937 cells [1] is “A (A: ≥90%)”. In addition, on RIPK1 kinase, the inhibition at 1 µM was ≥ 75%. Besides, the pEC50 in the assay with U937 cells [2] was 6.30 to 7.00.
On to `CN1C(=O)[C@@H](NC(=O)C(=O)NCc2ccccc2)COc2ccccc21` [Example 58, (S)—N^1-benzyl-N^2-(5-methyl-4-oxo-2,3,4,5-tetrahydrobenzo[b][1,4]oxazepin-3-yl)oxalamide], for which the “Inhibition rate range of compounds” value with U937 cells [1] was “B (B: 50-89%)”. Besides, the inhibition at 1 µM at RIPK1 kinase fell in the range of 25 to 49%. The pEC50 in the assay on U937 cells [2] is 5.70 to 6.30.
`CN1C(=O)C(NC(=O)C(=O)NCCc2ccccc2)CCc2cc(Br)ccc21` (stereo not drawn) [Example 63, N^1-(7-bromo-1-methyl-2-oxo-2,3,4,5-tetrahydro-1H-benzo[b]azepin-3-yl)-N^2-phenethyloxalamide]: the “Inhibition rate range of compounds” value in the assay on U937 cells [1] is listed as “A (A: ≥90%)”. Further, the inhibition at 1 µM at RIPK1 kinase was in the range of 25 to 49%. Also, the pEC50 with U937 cells [2] was 6.30 to 7.00.
Regarding `CN1C(=O)C(NC(=O)C(=O)NCc2ccccc2)CCc2ccccc21` (stereo not drawn) [Example 68, N^1-benzyl-N^2-(1-methyl-2-oxo-2,3,4,5-tetrahydro-1H-benzo[b]azepin-3-yl)oxalamide], in the assay on U937 cells [1], the “Inhibition rate range of compounds” value is on record as “B (B: 50-89%)”. Also, the inhibition at 1 µM on RIPK1 kinase is ≥ 75%. The negative-log EC50 (pEC50) in the assay with U937 cells [2] is 5.70 to 6.30.
For `CN1C(=O)C(NC(=O)C(=O)NCCc2ccccc2)CCc2cccnc21` (stereo not drawn) [Example 69, N^1-(9-methyl-8-oxo-6,7,8,9-tetrahydro-5H-pyrido[2,3-b]azepin-7-yl)-N^2-phenethyloxalamide] the same measures were “B (B: 50-89%)”, ≥ 75% and 5.70 to 6.30.
For the molecule `CN1C(=O)[C@H](NC(=O)C(=O)NCCc2ccccc2)COc2ccc(Br)cc21` [Example 71, (R)—N^1-(7-bromo-5-methyl-4-oxo-2,3,4,5-tetrahydrobenzo[b][1,4]oxazepin-3-yl)-N^2-phenethyloxalamide], the “Inhibition rate range of compounds” value with U937 cells [1] is “B (B: 50-89%)”. Besides, at RIPK1 kinase, the inhibition at 1 µM is 50 to 74%. In the assay with U937 cells [2], the pEC50 is 5.70 to 6.30.
Turning to `CN1C(=O)[C@@H](NC(=O)C(=O)NCCc2ccccc2)COc2ccc(C#CCn3ccnc3)cc21` [Example 72, (S)—N^1-(7-(3-(1H-imidazol-1-yl)prop-1-yn-1-yl)-5-methyl-4-oxo-2,3,4,5-tetrahydrobenzo[b][1,4]oxazepin-3-yl)-N^2-phenethyloxalamide], in the assay with U937 cells [1], the “Inhibition rate range of compounds” value was “A (A: ≥90%)”. The inhibition at 1 µM on RIPK1 kinase was ≥ 75%. In addition, the pEC50 in the assay with U937 cells [2] is > 7.00.
